Test results: PMC4686872 (European journal of medicinal chemistry, 2015)
In brackets after ≈: the same amount, converted by molar mass. Where two headings read alike, the source gives them in different places.

Experiments:
[1] = tested on: murine macrophage (J774) cell line; assay: MTS cytotoxicity assay
MRSA = assay: Broth microdilution MIC against MRSA, summarised over the strains tested; type: cell-based, Staphylococcus aureus; conditions: for antimicrobial activity against MRSA (in words): strains as named in the sentence; for MIC: Staphylococcus aureus, MRSA, read-out: MIC against MRSA
VRSA (VRS2) = assay: Broth microdilution MIC, VRSA VRS2; type: cell-based, Staphylococcus aureus; conditions: vancomycin-resistant S. aureus VRS2
MRSA USA300 = assay: Minimum bactericidal concentration
Caco-2 bilayer [2] = assay: Caco-2 permeability assay
[3] = Kinetic solubility screen in PBS; type: physicochemical
in vitro = conditions: human, Caco-2
Caco-2 bilayer [4] = tested on: Caco-2 bilayer
[5] = 128 µM (data not presented), all toxic, exception = not toxic
[6] = 64 µM / up to a concentration of 64 µM

## [C-]#[N+]c1ccc(/C=C/c2ccccc2)cc1 [Compound 37]
[1]; [5]
  toxicity to J774 cells: exception

## [C-]#[N+]c1ccccc1CP(=O)(OCC)OCC [Compound 4a]
MRSA
  antimicrobial activity against MRSA (in words): complete loss of activity
VRSA (VRS2)
  Minimum inhibitory concentration (MIC), VRSA2 VRS 2: >128 µM

## [C-]#[N+]c1ccccc1/C=C/c1ccc(C)cc1 [Compound 23]
MRSA
  MIC: 4 to 64 µM (≈ 0.877 to 14 µg/mL)
  antimicrobial activity against MRSA (in words): active against all MRSA strains tested

## [C-]#[N+]c1ccccc1/C=C(\CC)c1cccc(C(F)(F)F)c1 [Compound 12]
[1]; [6]
  toxicity to J774 cells: toxic

## [C-]#[N+]c1ccccc1/C=C/c1cccc(OC)c1 [Compound 15]
[1]; [5]
  toxicity to J774 cells: exception

## [C-]#[N+]c1ccccc1/C=C/c1cccc(F)c1 [Compound 19]
[1]; [6]
  toxicity to J774 cells: toxic

## [C-]#[N+]c1ccccc1/C=C(\CC)c1ccccc1 [Compound 1]
MRSA
  MIC: 8 to 64 µM (≈ 1.87 to 14.9 µg/mL)
MRSA USA300
  bacteriostatic or bactericidal: bacteriostatic

## [C-]#[N+]c1ccccc1/C=C/c1ccncc1 [Compound 33]
MRSA
  antimicrobial activity against MRSA (in words): reduced antimicrobial activities

## [C-]#[N+]c1ccccc1C=C1CCCCC1 [Compound 26]
MRSA
  antimicrobial activity against MRSA (in words): inactive against several MRSA isolates

## [C-]#[N+]c1ccccc1-c1ccccc1 [Compound 46]
MRSA
  antimicrobial activity against MRSA (in words): lacks activity against three strains of MRSA

## [C-]#[N+]c1ccccc1/C=C/c1ccc([N+](=O)[O-])cc1 [Compound 25]
[1]; 32 µM, all not toxic, exception = toxic
  toxicity to J774 cells: exception
[1]; [6]
  toxicity to J774 cells: toxic

## CC/C(=C\c1ccccc1)c1ccccc1 [Compound 42]
MRSA
  antimicrobial activity against MRSA (in words): complete loss in the anti-MRSA activity

## [C-]#[N+]c1ccccc1CCc1ccccc1 [Compound 53]
MRSA
  antimicrobial activity against MRSA (in words): active against several strains

## [C-]#[N+]c1ccccc1/C=C/c1ccccn1 [Compound 27]
MRSA
  antimicrobial activity against MRSA (in words): reduced antimicrobial activities

## [C-]#[N+]c1ccccc1/C=C(\CC)c1ccc(OC)cc1 [Compound 11]
[1]; [6]
  toxicity to J774 cells: toxic

## N#Cc1ccccc1/C=C/c1ccccc1 [Compound 43]
MRSA
  antimicrobial activity against MRSA (in words): complete loss of antimicrobial activity

## [C-]#[N+]c1ccc(C)cc1-c1ccc(C(F)(F)F)cc1 [Compound 50]
MRSA
  antimicrobial activity against MRSA (in words): loss in antimicrobial activity

## [C-]#[N+]c1ccccc1/C=C/c1ccccc1 [Compound 13]
[1]; [6]
  toxicity to J774 cells: neither compound was toxic
Caco-2 bilayer [2]
  Permeability Analysis: Not permeable
[3]
  Solubility Analysis: Low solubility
MRSA
  MIC: ≥ 2 µM
MRSA; relative to compound 1 (removal of the ethyl group)
  reduction in the MIC against MRSA: two-to-eight fold

## CNC(=C[N+](=O)[O-])NCCSCc1ccc(CN(C)C)o1 [Ranitidine]
In vitro
  Papp A→B: 0.23 ×10⁻⁶ cm/s
Caco-2 bilayer [4]
  Permeability Analysis: Low permeability

## [C-]#[N+]c1ccccc1/C=C/c1ccc(CCCC)cc1 [Compound 24]
MRSA
  antimicrobial activity against MRSA (in words): lacked activity against most MRSA strains tested

## [C-]#[N+]c1ccc(C)cc1-c1ccc(C(C)(C)C)cc1 [Compound 49]
MRSA
  antimicrobial activity against MRSA (in words): loss in antimicrobial activity

## COC(=O)[C@H]1[C@H]2C[C@@H]3c4[nH]c5cc(OC)ccc5c4CCN3C[C@H]2C[C@@H](OC(=O)c2cc(OC)c(OC)c(OC)c2)[C@@H]1OC [Reserpine, reference compound]
[3]
  Solubility Analysis: Low solubility

## [C-]#[N+]c1ccccc1/C=C/c1cccnc1 [Compound 30]
[1]; [5]
  toxicity to J774 cells: exception
MRSA
  antimicrobial activity against MRSA (in words): reduced antimicrobial activities
